Here are results for 9 compounds from ChEMBL document CHEMBL1201862, “PubChem BioAssay data set” (2004).

Among the test systems are HCC 2998; HCT-15; HOP-62; HOP-92; HT-29; M19-MEL; MOLT-4; Malme-3M; NCI-H522; OVCAR-3; OVCAR-5; SF-268; SF-539; SK-OV-3; SW-620; TK-10; M14; OVCAR-4; Hs-578T; NCI/ADR-RES.
What all share (experiment): growth of human tumour cells (NCI), 48 h

The structures appear in SMILES notation.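 Tested at 5 concentrations; 48 h exposure; 96-well plates; endpoints linearly interpolated, else capped at highest concentration. GI50 marks 50% less growth.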 The source made the active and inactive calls. Rule as the data show it: active = GI50 up to about 1.1 µM and inactive = higher.

For `Cc1nc(Nc2ccc([N+](=O)[O-])cc2)sc1C(=O)/C=C/c1ccc(N(C)C)cc1`, the GI50 with HCC 2998 was 78.3 µM (inactive); with HCT-15 it was 44.6 µM; in the test on HOP-62, > 100 µM (inactive); in the test on HOP-92, > 100 µM (inactive); in the test on HT-29, > 100 µM (inactive); in the test on M19-MEL it was > 100 µM (inactive). Also, the GI50 in the test on MOLT-4 was 35.9 µM (inactive); in the test on Malme-3M, > 100 µM (inactive); in the test with NCI-H522, 19.4 µM (inactive); in the test with OVCAR-3, > 100 µM (inactive); with OVCAR-5, > 100 µM (inactive); in the test on SF-268, > 100 µM (inactive). Further, the GI50 is 88.9 µM (inactive) in the test on SF-539, > 100 µM (inactive) with SK-OV-3, > 100 µM (inactive) in the test on SW-620 and 77.4 µM (inactive) in the test on TK-10.
As to `c1ccc2c(CNCCCCCCNCc3cccc4ccccc34)cccc2c1`, the GI50 in the test on HCT-15 is 6.75 µM; in the test on HOP-62 it was 16.1 µM (inactive); in the test with HOP-92, 6.14 µM (inactive); in the test with HT-29 it was 2.23 µM (inactive); with M14, 1.79 µM (inactive); in the test with M19-MEL, 4.2 µM (inactive). Further, the GI50 with MOLT-4 was 3.04 µM (inactive); in the test on Malme-3M, 1.95 µM (inactive); in the test on NCI-H522 it was 2.32 µM (inactive); with OVCAR-3, 16.4 µM (inactive); with OVCAR-4, 14.7 µM (inactive); with OVCAR-5, 15.9 µM (inactive). In addition, the GI50 in the test on SF-268 was 11.9 µM (inactive); with SF-539 it was 1.82 µM (inactive); with SK-OV-3 it was 17.5 µM (inactive); in the test on SW-620, 4.06 µM (inactive); with TK-10, 12.6 µM (inactive).
In the case of `COCCNC(=O)C1C(=O)N(CCOC)C(=O)/C1=N/N` (stereo not given), the GI50 is greater than 100 µM in the test with HCT-15; > 100 µM (inactive) with HOP-92; > 100 µM (inactive) in the test with HT-29; > 100 µM (inactive) with M14; > 100 µM (inactive) with M19-MEL; > 100 µM (inactive) in the test on MOLT-4. Besides, the GI50 with Malme-3M, in the test with NCI-H522, in the test with OVCAR-3, with SF-268, in the test on SF-539 and in the test on SK-OV-3 was > 100 µM (inactive) each time. Further, the GI50 in the test with SW-620 and in the test with TK-10 was > 100 µM (inactive) each time.
With `COC1C2C[C@@H](O)CCC2C(C(=O)OCCl)C[C@H]1O` (stereo not given in full), the GI50 is > 100 µM (inactive) in the test on HCC 2998; greater than 100 µM in the test with HCT-15; > 100 µM (inactive) in the test on HOP-62; > 100 µM (inactive) with M14; > 100 µM (inactive) in the test on M19-MEL; > 100 µM (inactive) in the test with MOLT-4. In addition, the GI50 with Malme-3M, in the test on NCI-H522, in the test on OVCAR-3, in the test on OVCAR-4, with SF-268 and with SF-539 was > 100 µM (inactive) in each case. Besides, the GI50 in the test on SK-OV-3, with SW-620 and in the test on TK-10 was > 100 µM (inactive) each time.
For `CN1CCC(CN2c3ccccc3Sc3ccccc32)CC1`, the GI50 is 12.9 µM (inactive) in the test with HCC 2998; 18.5 µM in the test with HCT-15; 18 µM (inactive) in the test with HOP-62; 5.69 µM (inactive) in the test on HOP-92; 12.7 µM (inactive) in the test with HT-29; 13 µM (inactive) in the test on M14. Besides, the GI50 with M19-MEL was 13.4 µM (inactive); in the test with MOLT-4, 15.5 µM (inactive); with NCI-H522 it was 14.9 µM (inactive); in the test on OVCAR-3, 15.3 µM (inactive); in the test with OVCAR-4 it was 16.3 µM (inactive); with OVCAR-5, 19.4 µM (inactive). Also, the GI50 in the test on SF-268 is 15.4 µM (inactive); in the test on SF-539, 14.9 µM (inactive); in the test with SK-OV-3, 16.5 µM (inactive); with SW-620, 15.3 µM (inactive); in the test with TK-10, 15.7 µM (inactive).
For `O=[N+]([O-])c1cccc2nc3ccccc3c(NCCCN3CCOCC3)c12`, the GI50 with HCC 2998 is < 0.01 µM (active); in the test on HCT-15, less than 0.0104 µM; in the test with HOP-62 it was < 0.016 µM (active); in the test with HOP-92, 0.0159 µM (active); in the test with HT-29 it was < 0.01 µM (active); in the test with Hs-578T it was 0.0405 µM (active). For the same compound, the GI50 in the test on M14 is < 0.0124 µM (active); in the test with MOLT-4 it was < 0.01 µM (active); in the test with Malme-3M it was 0.0142 µM (active); in the test on NCI-H522, 0.0168 µM (active); in the test with NCI/ADR-RES, 0.044 µM (active); in the test on OVCAR-3, 0.0184 µM (active). The GI50 is 0.0191 µM (active) in the test with OVCAR-4; 0.0287 µM (active) in the test on OVCAR-5; 0.0226 µM (active) in the test with SF-268; 0.0283 µM (active) with SF-539; 0.0362 µM (active) in the test on SK-OV-3; < 0.01 µM (active) with SW-620. Further, the GI50 in the test with TK-10 was 0.029 µM (active).
Take `Cc1ccc(-c2nnc(-c3ccc4ccccc4c3)o2)cc1`: the GI50 with HCC 2998 was > 100 µM (inactive); in the test on HCT-15 it was greater than 96.8 µM; in the test with HOP-62, 18 µM (inactive); with HOP-92, > 51.6 µM (inactive); in the test on HT-29, > 87.9 µM (inactive); with Hs-578T it was 23 µM (inactive). Further, the GI50 was 12.3 µM (inactive) with M14; 3.13 µM (inactive) in the test with MOLT-4; 5.38 µM (inactive) in the test on Malme-3M; 69.7 µM (inactive) in the test with NCI-H522; 12.7 µM (inactive) in the test with NCI/ADR-RES; 99.1 µM (inactive) in the test with OVCAR-3. The GI50 in the test on OVCAR-4 is 40.3 µM (inactive); with OVCAR-5, > 61.8 µM (inactive); in the test on SF-268 it was 9.31 µM (inactive); with SF-539, 19.6 µM (inactive); in the test with SK-OV-3 it was 56.2 µM (inactive); in the test on SW-620, 20 µM (inactive). Moreover, the GI50 with TK-10 was 7.94 µM (inactive).
Regarding `C1COC2SC3=C(SC(=C4SC5=C(SCCS5)S4)S3)SC2O1` (stereo not given), the GI50 with HCC 2998 was > 100 µM (inactive); with HCT-15, 8.49 µM; with HOP-62, > 100 µM (inactive); with HOP-92 it was > 100 µM (inactive); with HT-29 it was > 100 µM (inactive); with Hs-578T it was 80.9 µM (inactive). Besides, the GI50 with M14 was 94 µM (inactive); with MOLT-4 it was > 100 µM (inactive); in the test on Malme-3M, 13 µM (inactive); with NCI-H522, 31.8 µM (inactive); with NCI/ADR-RES, > 100 µM (inactive); in the test on OVCAR-3 it was > 100 µM (inactive). Besides, the GI50 in the test on OVCAR-4 is 31.3 µM (inactive); in the test with OVCAR-5 it was > 100 µM (inactive); with SF-268, > 100 µM (inactive); with SF-539, 44 µM (inactive); in the test with SK-OV-3 it was 72.3 µM (inactive); with SW-620 it was 68.7 µM (inactive). The GI50 in the test on TK-10 was > 100 µM (inactive).
As for `C=C1c2nc3ccccc3n2C=C(c2ccccc2)N1c1ccc(Cl)cc1`, the GI50 with HCC 2998 is 65.6 µM (inactive); in the test with HCT-15, 33.3 µM; with HOP-62 it was 18.7 µM (inactive); with HOP-92, 26.8 µM (inactive); with HT-29 it was 18.6 µM (inactive); in the test on Hs-578T, 21.3 µM (inactive). The GI50 was 17.1 µM (inactive) in the test on M14; > 100 µM (inactive) in the test with MOLT-4; 7.85 µM (inactive) with Malme-3M; 11.5 µM (inactive) with NCI-H522; 23.6 µM (inactive) with NCI/ADR-RES; 20 µM (inactive) in the test with OVCAR-3. Further, the GI50 in the test with OVCAR-4 was 5.74 µM (inactive); in the test on OVCAR-5, 21.7 µM (inactive); with SF-268 it was > 100 µM (inactive); with SF-539 it was 7.89 µM (inactive); with SK-OV-3 it was 27.3 µM (inactive); in the test with SW-620, 26.5 µM (inactive). Moreover, the GI50 with TK-10 is 13.4 µM (inactive).
